Experimental findings from ChEMBL document CHEMBL6109053, “Aspirin-based PROTACs as COX-2 degraders for anti-inflammation” (Bioorg Med Chem, 2025) are described below.

Each structure is given as a SMILES string. The source made the active and inactive calls. The calls are words filed in the database; no cut-off is given here.

For data set [1], the system named is RAW264.7. In words: Cytotoxicity against mouse RAW264.7 cells at 20 uM incubated for 24 hrs by CCK-8 assay. Particulars: raw264.7, 24 h. The data set is classed as toxicity, cell-based.
For data set [2], the system named is RAW264.7. The data set is described as follows: Anti-inflammatory activity in LPS-induced mouse RAW264.7 cells. Format: functional, cell-based.
The target in data set [3] is Protein cereblon/Prostaglandin G/H synthase 2 (Mus musculus) (UniProt Q05769+Q8C7D2). The data set is described as follows: PROTAC activity at COX-2/CRBN in mouse RAW264.7 cells assessed as downregulation of COX2 expression measured after 24 hrs by Western blot analysis. Format: cell-based. Particulars: dose 5-20 µM.
Protein cereblon/Prostaglandin G/H synthase 2 (Mus musculus), sequence (Q05769 whole entry, looked up): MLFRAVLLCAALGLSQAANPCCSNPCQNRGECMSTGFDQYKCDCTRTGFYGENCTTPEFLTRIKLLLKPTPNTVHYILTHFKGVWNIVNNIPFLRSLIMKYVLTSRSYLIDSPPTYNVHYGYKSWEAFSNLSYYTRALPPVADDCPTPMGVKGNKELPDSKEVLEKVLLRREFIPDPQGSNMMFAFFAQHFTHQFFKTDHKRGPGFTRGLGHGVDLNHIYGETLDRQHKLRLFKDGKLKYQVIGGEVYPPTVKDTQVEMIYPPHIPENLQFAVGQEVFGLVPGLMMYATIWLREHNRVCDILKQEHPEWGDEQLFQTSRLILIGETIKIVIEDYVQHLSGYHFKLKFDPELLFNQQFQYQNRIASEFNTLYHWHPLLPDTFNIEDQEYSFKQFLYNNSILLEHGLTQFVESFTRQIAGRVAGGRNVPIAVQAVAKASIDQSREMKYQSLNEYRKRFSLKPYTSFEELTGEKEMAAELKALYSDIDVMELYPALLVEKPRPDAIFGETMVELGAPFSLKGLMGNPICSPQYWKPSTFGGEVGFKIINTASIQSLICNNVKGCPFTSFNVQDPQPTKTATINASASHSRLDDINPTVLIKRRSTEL
Protein cereblon/Prostaglandin G/H synthase 2 (Mus musculus), sequence (Q8C7D2 whole entry, looked up): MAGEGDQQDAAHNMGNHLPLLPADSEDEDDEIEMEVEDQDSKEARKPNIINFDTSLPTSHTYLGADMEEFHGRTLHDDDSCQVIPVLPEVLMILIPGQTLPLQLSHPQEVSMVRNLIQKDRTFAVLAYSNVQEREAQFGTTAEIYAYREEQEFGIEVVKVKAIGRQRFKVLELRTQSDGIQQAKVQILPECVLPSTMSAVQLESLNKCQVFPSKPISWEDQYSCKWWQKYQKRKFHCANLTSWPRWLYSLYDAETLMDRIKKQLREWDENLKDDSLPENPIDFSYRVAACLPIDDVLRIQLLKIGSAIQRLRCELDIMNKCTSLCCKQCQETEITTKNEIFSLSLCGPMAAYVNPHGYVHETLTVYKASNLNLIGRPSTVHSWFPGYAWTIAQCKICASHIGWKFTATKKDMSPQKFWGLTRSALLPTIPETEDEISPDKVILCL
Data set [4] concerns RAW264.7. The data set is described as follows: PROTAC activity at COX-2/VHL in mouse RAW264.7 cells assessed as downregulation of COX2 expression measured after 24 hrs by Western blot analysis. Particulars: dose 5-20 µM. Format: cell-based.
In data set [5] the target is T1, Prostaglandin G/H synthase 2 (Homo sapiens, UniProt P35354).
T1 sequence (P35354 whole entry): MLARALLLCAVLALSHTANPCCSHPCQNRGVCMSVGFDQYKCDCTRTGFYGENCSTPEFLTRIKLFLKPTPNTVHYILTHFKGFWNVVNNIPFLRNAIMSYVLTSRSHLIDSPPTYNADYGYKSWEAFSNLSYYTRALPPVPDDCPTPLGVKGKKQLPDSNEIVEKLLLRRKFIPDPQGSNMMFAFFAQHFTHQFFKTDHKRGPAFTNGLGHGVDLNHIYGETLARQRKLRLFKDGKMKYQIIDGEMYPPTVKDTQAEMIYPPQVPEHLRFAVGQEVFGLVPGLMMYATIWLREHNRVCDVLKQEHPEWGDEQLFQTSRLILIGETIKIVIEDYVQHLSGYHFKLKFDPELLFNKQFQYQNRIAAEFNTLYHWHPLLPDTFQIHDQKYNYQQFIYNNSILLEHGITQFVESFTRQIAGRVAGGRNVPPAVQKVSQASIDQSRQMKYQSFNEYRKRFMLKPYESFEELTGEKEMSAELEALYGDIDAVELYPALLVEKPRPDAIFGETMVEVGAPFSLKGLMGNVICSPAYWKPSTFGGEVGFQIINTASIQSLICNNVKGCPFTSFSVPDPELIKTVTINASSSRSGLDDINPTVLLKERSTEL
In words: Inhibition of human recombinant COX-2 using S0168-2 as substrate preincubated for 10 mins followed by substrate addition and measured after 10 mins by microplate reader analysis.

Turning to `O=C1CCC(N2C(=O)c3cccc(NC4CCC(NC(=O)CCCCn5cc(CCC(=O)Oc6ccccc6C(=O)O)nn5)CC4)c3C2=O)C(=O)N1` (configuration not stated), the figures for the Activity result in data set [1] and in data set [3] were “Non-toxic” and “Dose-dependent-effect”, respectively. Also, the result in data set [2] was Active.

On to `Cc1ncsc1-c1ccc([C@@H](C)NC(=O)[C@@H]2C[C@@H](O)CN2C(=O)[C@@H](NC(=O)CCCCn2cc(CCC(=O)Oc3ccccc3C(=O)O)nn2)C(C)(C)C)cc1`, for which the figures for the Activity result in data set [1] and in data set [4] were “Non-toxic” and “Dose-dependent-effect”, respectively. Moreover, in data set [2], the outcome was Active. The IC50 – broadly, the concentration that gives 50% inhibition – in data set [5] came out at 323 µM.
